Reference: patent US4584312A, “Substituted 2,3,4,9-tetrahydro-1H-carbazole-1-acetic acid, compositions and use” (American Home Products Corporation, priority 1985, dated 1986)

Columns and labels:
[1] = tested on: Freund's complete adjuvant hind paw edema; test: Preventative Adjuvant Edema; type: in vivo, rat (Male Sprague Dawley); details: 25 mg/kg, p.o.; rats; hind paw edema volume day 0 to day 3; dosed day 0, 1 and 2
Method: This test is a primary screen for anti-inflammatory drugs.
Male Sprague Dawley rats (180-200 g) are used. The animals have free access water but food is withdrawn 18 hours before testing.
Freund's complete adjuvant is prepared by suspending 5 mg killed and dried Mycobacterium butyricum (Difco) in 1 ml liquid paraffin. The test compounds are dissolved in distilled water or suspended in distilled water with a few drops of Tween 80 according to their solubility. […]
The method is essentially that described by Wax et al., J. Pharmacol. Exp. Ther., 192, 166-171 (1975). Groups of rats are injected intradermally in the left hind paw with 0.1 ml of Freund's complete adjuvant. The test compound or vehicle is administered immediately before the adjuvant, 24 hours and 48 hours after the adjuvant (day 0, 1 and 2). The injected hind paw volume is measured before the injection of adjuvant and 24 hrs. after the last drug administration (day 3) by means of a plethysmometer (Buxco Electronics Inc.). The difference between the hind paw volume on day 0 and day 3 represents the edema volume. Phenylbutazone (50 mg/kg, p.o.) is included as a positive control.
The mean edema volume (expressed as ml±SEM) IS calculated for each group and the percentage protection conferred by the drug is calculated: [formula] where c is the mean edema volume for the untreated controls and t is the mean edema volume for the drug treated group.

[2] = tested on: phenylquinone-induced writhing; test: Phenylquinone Writhing in Mice; type: in vivo, mouse (Male Swiss albino); details: 25 mg/kg, p.o., phenylquinone i.p. 60 minutes after dosing, writhes counted over 15 min
Method: A further test used to determine the utility of the compounds of the present invention is designated: DRUG EFFECTS ON PHENYLQUINONEINDUCED WRITHING IN MICE
The objective of this test is to determine the ability of test drugs to inhibit the nociceptive (pain) response of mice injected with a chemical irritant. This test is a primary screen for both peripheral and centrally acting analgesic drugs.
Male Swiss albino mice (15-25 g). The animals are fasted for 18 hours prior to use but have free access to water.
Drugs are dissolved or suspended according to their solubility in 0.5% methyl cellulose or 0.5% Tween 80. They are administered by gastric lavage in a volume of 5 ml/kg. For primary screening all drugs are administered at the arbitary dosage of 200 mg/kg, p.o. to a group of 10 mice.
A modification of the method of Siegmund et al., Proc. Soc. Exp. Biol. Med., 95, 729-731 (1957) is used. Groups of 5 mice are dosed with the test compound or vehicle control. Sixty minutes later the animals are injected i.p. with 0.3 ml/20 g body weight of a 0.02% solution of phenylquinone (PBQ; 2-phenyl-1,4-benzoquinone) and placed in individual observation boxes. The number of writhing or abdominal squirming movements made by each mouse during the following 15 min. period is counted. The experiment is repeated with another group of 5 mice and the mean number of writhes per mouse for a group of 10 mice is calculated.
Drug treated and vehicle-treated control groups are compared and the percentage protection conferred by the drug is calculated: [formula] where c=mean number of writhes in the control group where t=mean number of writhes in the test drug group

| Structure (SMILES) | % Inhibition (Preventative Adjuvant Edema) [1] [%] | % Inhibition (Phenylquinone Writhing in Mice) [2] [%] |
| --- | --- | --- |
| CCc1cccc2c3c([nH]c12)C(CC)(CC(=O)O)CCC3C1CC1 (single isomer, unassigned) [Example 1 f Isomer A, 4-Cyclopropyl-1,8-diethyl-2,3,4,9-tetrahydro-1H-carbazole-1-acetic Acid] | 0 | 31 |
| CCc1cccc2c3c([nH]c12)C(CC)(CC(=O)O)CCC3C1CC1 (single isomer, unassigned) [Example 1 f Isomer B, 4-Cyclopropyl-1,8-diethyl-2,3,4,9-tetrahydro-1H-carbazole-1-acetic Acid] | 12 | 49 |
| CCc1cccc2c3c([nH]c12)C(CC)(CC(=O)O)CCC3C1CCCC1 (single isomer, unassigned) [Example 2 c Isomer B, 4-Cyclopentyl-1,8-diethyl-2,3,4,9-tetrahydro-1H-carbazole-1-acetic acid] | 0 | 17 |
| CCc1cccc2c3c([nH]c12)C(CC)(CC(=O)O)CCC3C1CCCC1 (single isomer, unassigned) [Example 2 d Isomer A, 4-cyclopentyl-1,8-diethyl-2,3,4,9-tetrahydro-1H-carbazole-1-acetic acid] | 0 | 35 |
